pIC50: −log10 of the molar value.

The test deals with T1, Recombinant human Src (Homo sapiens, UniProt P12931).
T1 construct: made in house; host or cells: baculovirus-insect cell system
T1 sequence (P12931 whole entry): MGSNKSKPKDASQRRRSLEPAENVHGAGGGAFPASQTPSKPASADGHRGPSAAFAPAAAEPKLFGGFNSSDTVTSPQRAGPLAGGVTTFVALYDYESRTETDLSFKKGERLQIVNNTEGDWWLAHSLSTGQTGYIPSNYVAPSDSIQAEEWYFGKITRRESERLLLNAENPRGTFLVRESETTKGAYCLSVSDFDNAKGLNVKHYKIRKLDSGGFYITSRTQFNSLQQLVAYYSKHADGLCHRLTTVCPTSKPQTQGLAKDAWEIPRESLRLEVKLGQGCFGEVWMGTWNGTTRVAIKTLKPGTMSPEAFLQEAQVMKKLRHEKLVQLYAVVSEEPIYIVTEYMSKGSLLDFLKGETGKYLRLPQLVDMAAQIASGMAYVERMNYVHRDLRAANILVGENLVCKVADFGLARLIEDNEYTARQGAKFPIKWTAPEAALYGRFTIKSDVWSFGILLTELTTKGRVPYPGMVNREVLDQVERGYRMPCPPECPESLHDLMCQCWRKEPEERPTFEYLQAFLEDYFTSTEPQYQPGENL
Briefly: Src tyrosine kinase activity assay with poly E4Y and 32P-ATP. It is filed as biochemical. Particulars: poly E4Y, 32P-ATP; NI = no inhibition; read-out: IC50 Value Src. On the procedure:
Recombinant human Src was expressed using the baculovirus-insect cell system and purified as published (Budde et al., 1993 and 2000). Recombinant Csk and the FGF receptor (FGFr) were expressed as […] fusion proteins using the pGEX expression vector and E. coli, and purified as described (Sun & Budde, 1995).
The tyrosine kinase activity of Src, Csk and FGFr was determined using poly E4Y and ^32P-ATP. Briefly, enzymes were assayed in a reaction mixture […] consisting of 0.15 M EPPS-NaOH (pH 8.0) with 6 mM MgCl2, 0.2 mM γ^32P-ATP (0.2-0.4 mCi/μmol), 10% glycerol, 0.1% Triton X-100, and poly E4Y. Poly E4Y is a synthetic peptide whose phosphorylation is measured in this assay by the addition of the radioactively labeled phosphate from the ATP (Budde et al., 1995). […] When ATP was varied (0, 50, 100 and 250 μM), poly E4Y was kept constant at 150 μg/ml.
Broadly, the pIC50 is the negative decadic logarithm of the IC50, by convention in mol/L. As for `CCOc1ccccc1-c1sc2c(NN=Cc3ccc(OC)cc3OC)ncnc2c1C` [Compound 79, 2,4-Dimethoxybenzaldehyde (6-(2-ethoxyphenyl)-7-methylthieno[3,2-d]pyrimidin-4-yl)hydrazone], the pIC50 is 6.60. In the case of `CCOc1ccccc1-c1sc2c(NN=Cc3ccco3)ncnc2c1C#N` [compound 119], the pIC50 is 8.33. For `CCOc1ccccc1-c1sc2c(NN=Cc3ccoc3)ncnc2c1O` [Compound 129, 3-Furancarboxaldehyde(6-(2-ethoxyphenyl)-7-hydroxythieno[3,2-d]pyrimidin-4-yl)hydrazone], the pIC50 is 8.47. Consider `Cc1c(-c2cccc(C#N)c2)sc2c(NN=Cc3ccc(C(=O)O)cc3)ncnc12` [Compound 30, 4-Carboxybenzaldehyde (6-(3-cyanophenyl)-7-methylthieno[3,2-d]pyrimidin-4-yl)hydrazone], for which the pIC50 was 6.80.

With `CCOc1ccccc1-c1sc2c(NN=Cc3ccc(OC)c(OCCN(CC)CC)c3)ncnc2c1C` (single isomer, unassigned) [Compound 158], the negative logarithm of the IC50 (pIC50) was 10.82. For `Cc1c(-c2ccc(O)cc2)sc2c(NN=Cc3ccc(C(=O)O)cc3)ncnc12` [Compound 76, 4-Carboxybenzaldehyde (6-(4-hydroxyphenyl)-7-methylthieno[3,2-d]pyrimidin-4-yl]hydrazone], the pIC50 was 7.39.

Take `COc1ccc(C=NNc2ncnc3c(C)c(-c4ccccc4C#N)sc23)cc1O` [Compound 31, 3-Hydroxy-4-methoxybenzaldehyde (6-(2-cyanophenyl)-7-methylthieno[3,2-d]pyrimidin-4-yl)hydrazone]: the negative-log IC50 (pIC50) was 7.13. To `CCOc1cc(F)ccc1-c1sc2c(NN=Cc3cccs3)ncnc2c1O` [Compound 109, 2-Thiophenecarboxaldehyde (6-(2-ethoxy-4-fluorophenyl)-7-hydroxythieno[3,2-d]pyrimidin-4-yl)hydrazone] belongs 8.96; to `CCOc1ccccc1-c1sc2c(NN=Cc3ccc(O)c(OC)c3)ncnc2c1C#N` [compound 86], 8.85; to `CCOc1ccccc1-c1sc2c(NN=Cc3ncc[nH]3)ncnc2c1O` [Compound 97, 2-Imidazolecarboxaldehyde (6-(2-ethoxyphenyl)-7-hydroxythieno[3,2-d]pyrimidin-4-yl)hydrazone], 7.26.

Take `Cc1c(-c2ccc(CN)cc2)sc2c(NN=Cc3cccs3)ncnc12` [Compound 4, 2-Thiophenecarboxaldehyde (6-(4-aminomethyl)phenyl-7-methylthieno[3,2-d]pyrimidin-4-yl)hydrazone]: the pIC50 was 7.55.

Consider `CCOc1ccccc1-c1sc2c(NN=Cc3ccc(C(=O)OC)cc3)ncnc2c1C#N` [compound 118], for which the pIC50 was 7.66. In the case of `CCOc1ccccc1-c1sc2c(NN=Cc3sccc3C)ncnc2c1C#N` [compound 122], the negative logarithm of the IC50 (pIC50) was 8.28. For `COc1ccc(C=NNc2ncnc3c(C)c(-c4ccc(C(N)=O)cc4)sc23)cc1O` [Compound 23, 3-Hydroxy-4-methoxybenzaldehyde (6-(4-aminocarbonylphenyl)-7-methylthieno[3,2-d]pyrimidin-4-yl)hydrazone] the value was 7.70; for `CCOc1ccccc1-c1sc2c(NN=Cc3ccccc3Cl)ncnc2c1C` [Compound 77, 2-Chlorobenzaldehyde (6-(2-ethoxyphenyl)-7-methylthieno[3,2-d]pyrimidin-4-yl)hydrazone], 5.85. For `Cc1c(CN2CCOCC2)sc2c(NN=Cc3cccnc3)ncnc12` [Compound 15, 3-Pyridinecarboxaldehyde (7-methyl-6-(morpholin-4-yl)methyllthieno[3,2-d]pyrimidin-4-yl)hydrazone] the value was 6.49; for `Cc1c(-c2cccc(C(N)=O)c2)sc2c(NN=Cc3cccnc3)ncnc12` [Compound 21, 3-Pyridinecarboxaldehyde (6-(3-aminocarbonylphenyl)-7-methylthieno[3,2-d]pyrimidin-4-yl)hydrazone], 7.04; for `Cc1c(-c2cccc(C#N)c2)sc2c(NN=Cc3cccs3)ncnc12` [Compound 28, 2-Thiophenecarboxaldehyde (6-(3-cyanophenyl)-7-methylthieno[3,2-d]pyrimidin-4-yl)hydrazone], 5.85. `CCOc1ccccc1-c1sc2c(NN=Cc3ccc(N(C)C)cc3)ncnc2c1C#N` [compound 131]: the pIC50 was 6.89. Consider `CCOc1ccccc1-c1sc2c(NN=Cc3ccc(O)c(OC)c3)ncnc2c1C` [Compound 55], for which the negative logarithm of the IC50 (pIC50) is 8.48. For the molecule `CCOc1ccccc1-c1sc2c(NN=Cc3ccc(OC)c(O)c3)ncnc2c1OC` [Compound 40, 3-Hydroxy-4-methoxybenzaldehyde (6-(2-ethoxyphenyl)-7-methoxythieno[3,2-d]pyrimidin-4-yl)hydrazone], the pIC50 is 7.66.

Turning to `CCOc1ccccc1-c1sc2c(NN=Cc3ccc(C(=O)OC)cc3)ncnc2c1O` [Compound 120, Methyl 4-formyl benzoate (6-(2-ethoxyphenyl)-7-hydroxythieno[3,2-d]pyrimidin-4-yl)hydrazone], the negative-log IC50 (pIC50) is 8.23. For `Cc1c(-c2ccccc2OCc2ccccc2)sc2c(NN=Cc3cccnc3)ncnc12` [Compound 82, 3-Pyridinecarboxaldehyde (6-(2-benzyloxyphenyl)-7-methylthieno[3,2-d]pyrimidin-4-yl)hydrazone] the value was 5.41; for `CCOc1ccccc1-c1sc2c(NN=Cc3ccccc3F)ncnc2c1C` [Compound 78, 2-Fluorobenzaldehyde (6-(2-ethoxyphenyl)-7-methylthieno[3,2-d]pyrimidin-4-yl)hydrazone], 9.08; for `CCOc1cc(F)ccc1-c1sc2c(NN=Cc3cc(OC)c(OCCN(CC)CC)c(OC)c3)ncnc2c1C` [Compound 160, 4-(2-Diethylamino-ethoxy)-3,5-dimethoxy-benzaldehyde (6-(2-ethoxy-4-fluorophenyl)-7-methylthieno[3,2-d]pyrimidin-4-yl)hydrazone], 9.52.

`COc1ccc(C=NNc2ncnc3c(C)c(-c4cccc(C#N)c4)sc23)cc1O` [Compound 27, 3-Hydroxy-4-methoxybenzaldehyde (6-(3-cyanophenyl)-7-methylthieno[3,2-d]pyrimidin-4-yl)hydrazone]: the pIC50 was 7.24. Take `CCOc1ccccc1-c1sc2c(NN=Cc3ccc(OC)c(OC)c3)ncnc2c1C` [Compound 53, 3,4-Dimethoxybenzaldehyde (6-(2-ethoxyphenyl)-7-methylthieno[3,2-d]pyrimidin-4-yl)hydrazone]: the pIC50 was 8.34. As to `CCOc1ccccc1-c1sc2c(NN=Cc3ccc(C(=O)O)cc3)ncnc2c1CO` [Compound 72, 4-Carboxybenzaldehyde (6-(2-ethoxyphenyl)-7-hydroxymethylthieno[3,2-d]pyrimidin-4-yl)hydrazone], the pIC50 is 7.49.

Take `COc1ccc(C=NNc2ncnc3c(C)c(-c4ccc(F)cc4)sc23)cc1O` [Compound 36, 3-Hydroxy-4-methoxybenzaldehyde (6-(4-fluorophenyl)-7-methylthieno[3,2-d]pyrimidin-4-yl)hydrazone]: the pIC50 was 7.24. Consider `CCOc1ccccc1-c1sc2c(NN=Cc3cc(OC)c(O)c(OC)c3)ncnc2c1C` [Compound 65, 3,5-Dimethoxy-4-hydroxybenzaldehyde (6-(2-ethoxyphenyl)-7-methylthieno[3,2-d]pyrimidin-4-yl)hydrazone], for which the pIC50 was 9.00. For `CCOc1ccccc1-c1sc2c(NN=Cc3cc(Br)c(O)c(OC)c3)ncnc2c1C#N` [compound 87] the value was 9.51; for `CCOc1ccccc1-c1sc2c(NN=Cc3cc(O)c(OC)c(OC)c3)ncnc2c1C` [Compound 64, 3,4-Dimethoxy-5-hydroxybenzaldehyde (6-(2-ethoxyphenyl)-7-methylthieno[3,2-d]pyrimidin-4-yl)hydrazone], 8.92.

On to `CCOc1ccccc1-c1sc2c(NN=Cc3ccc4c(c3)OCCO4)ncnc2c1C` [Compound 66, 2,3-Dihydro-benzo[1,4]dioxine-6-carbaldehyde (6-(2-ethoxyphenyl)-7-methylthieno[3,2-d]pyrimidin-4-yl)hydrazone], for which the negative-log IC50 (pIC50) was 8.19.

With `COc1ccc(C=NNc2ncnc3c(C)c(CNc4ccccc4)sc23)cc1O` [Compound 18], the negative-log IC50 (pIC50) is 6.26. For `CCOc1ccccc1-c1sc2c(NN=Cc3ccc(OC)c(O)c3)ncnc2c1OCCN1CCOCC1` [Compound 41, 3-Hydroxy-4-methoxybenzaldehyde (6-(2-ethoxyphenyl)-7-(2-(morpholin-4-yl)-ethoxy)thieno[3,2-d]pyrimidin-4-yl)hydrazone] the value was 6.47; for `Cc1c(-c2ccc(C(N)=O)cc2)sc2c(NN=Cc3cccs3)ncnc12` [Compound 25, 2-Thiophenecarboxaldehyde (6-(4-aminocarbonylphenyl)-7-methylthieno[3,2-d]pyrimidin-4-yl)hydrazone], 7.59.

Turning to `COc1ccc(C=NNc2ncnc3c(C)c(-c4ccc(CN)cc4)sc23)cc1O` [Compound 5, 3-Hydroxy-4-methoxybenzaldehyde (6-(4-aminomethyl)phenyl-7-methylthieno[3,2-d]pyrimidin-4-yl)hydrazone], the pIC50 was 7.49.

As for `Cc1c(-c2ccc(CN)cc2)sc2c(NN=Cc3cccnc3)ncnc12` [Compound 3, 3-Pyridinecarboxaldehyde (6-(4-aminomethyl)phenyl-7-methylthieno[3,2-d]pyrimidin-4-yl)hydrazone], the pIC50 is 7.62.

The values above are taken from US20060004002A1 (priority 2004, published 2006).
